Biological target: hTRPM3 (transient receptor potential melastatin 3) (Homo sapiens, UniProt Q9HCF6)
Format: cell-based

Chain of hTRPM3 (transient receptor potential melastatin 3) (Q9HCF6 whole entry): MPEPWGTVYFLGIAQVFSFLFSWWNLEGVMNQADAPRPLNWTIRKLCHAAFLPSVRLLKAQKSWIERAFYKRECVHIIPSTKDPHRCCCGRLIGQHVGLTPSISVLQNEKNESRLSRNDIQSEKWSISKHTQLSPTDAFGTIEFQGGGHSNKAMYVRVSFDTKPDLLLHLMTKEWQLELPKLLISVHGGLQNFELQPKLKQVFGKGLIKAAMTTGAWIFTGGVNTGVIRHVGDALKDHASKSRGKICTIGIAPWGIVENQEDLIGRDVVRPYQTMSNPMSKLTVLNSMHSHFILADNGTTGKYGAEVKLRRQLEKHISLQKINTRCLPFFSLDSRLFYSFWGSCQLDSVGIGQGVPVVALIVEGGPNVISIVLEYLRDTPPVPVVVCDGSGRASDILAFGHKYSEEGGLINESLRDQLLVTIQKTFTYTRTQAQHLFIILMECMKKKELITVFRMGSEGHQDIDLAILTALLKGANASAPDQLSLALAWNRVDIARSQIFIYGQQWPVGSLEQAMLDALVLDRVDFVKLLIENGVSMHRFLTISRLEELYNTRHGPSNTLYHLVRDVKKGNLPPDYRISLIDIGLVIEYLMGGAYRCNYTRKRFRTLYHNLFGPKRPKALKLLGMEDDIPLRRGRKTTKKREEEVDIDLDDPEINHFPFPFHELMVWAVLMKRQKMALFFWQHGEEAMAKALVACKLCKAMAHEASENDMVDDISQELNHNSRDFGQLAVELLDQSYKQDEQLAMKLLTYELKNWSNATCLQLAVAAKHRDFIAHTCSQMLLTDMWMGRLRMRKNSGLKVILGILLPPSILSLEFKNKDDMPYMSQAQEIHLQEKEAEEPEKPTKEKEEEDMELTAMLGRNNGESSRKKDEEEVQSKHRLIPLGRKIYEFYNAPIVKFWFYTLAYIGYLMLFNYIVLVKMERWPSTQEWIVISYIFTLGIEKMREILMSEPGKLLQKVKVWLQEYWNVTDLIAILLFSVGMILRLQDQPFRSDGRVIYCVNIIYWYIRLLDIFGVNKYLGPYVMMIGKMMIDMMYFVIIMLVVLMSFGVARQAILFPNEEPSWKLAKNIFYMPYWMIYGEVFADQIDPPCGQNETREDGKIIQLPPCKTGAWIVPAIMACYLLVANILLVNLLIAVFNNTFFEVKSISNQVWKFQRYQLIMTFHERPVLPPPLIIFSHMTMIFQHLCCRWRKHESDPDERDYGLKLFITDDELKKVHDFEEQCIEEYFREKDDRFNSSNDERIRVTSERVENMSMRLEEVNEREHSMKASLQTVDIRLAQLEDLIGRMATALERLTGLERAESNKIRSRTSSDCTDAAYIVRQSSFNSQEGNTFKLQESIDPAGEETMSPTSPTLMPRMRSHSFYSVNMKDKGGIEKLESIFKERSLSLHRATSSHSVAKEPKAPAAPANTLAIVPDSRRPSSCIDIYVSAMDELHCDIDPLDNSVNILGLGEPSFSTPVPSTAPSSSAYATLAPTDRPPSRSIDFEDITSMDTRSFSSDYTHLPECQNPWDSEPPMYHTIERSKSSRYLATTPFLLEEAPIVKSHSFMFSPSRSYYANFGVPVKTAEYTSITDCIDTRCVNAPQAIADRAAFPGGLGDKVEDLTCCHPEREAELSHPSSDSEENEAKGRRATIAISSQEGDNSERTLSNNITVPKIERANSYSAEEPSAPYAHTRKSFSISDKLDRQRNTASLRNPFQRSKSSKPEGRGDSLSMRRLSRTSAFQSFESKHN

EC50: 18 µM
Structure (SMILES): CCCCCCCC(=O)OC[C@H](COP(=O)(O)O[C@@H]1[C@H](O)[C@H](O)[C@@H](OP(=O)(O)O)[C@H](OP(=O)(O)O)[C@H]1O)OC(=O)CCCCCCC [diC8 PI(4,5)P2]
